# Experimental data taken from patent US8802678B2, “Carbonylated (aza) cyclohexanes as dopamine D3 receptor ligands” (Bioprojet, priority 2006, dated 2014).
row,Compound,melting point
1,Cl.Cl.O=C(CN1CCC(CCN2CCN(c3cccc(C(F)(F)F)c3)CC2)CC1)c1ccccc1,260 °C
2,CCC(=O)C(=O)N1CCC(CCN2CCN(c3cccc(C(F)(F)F)c3)CC2)CC1.Cl,148 °C
3,N#CCC(=O)N[C@H]1CC[C@H](CCN2CC=C(c3ccccc3F)CC2)CC1,156 °C
4,N#CCC(=O)N[C@H]1CC[C@H](CCN2CC=C(c3ccccc3)CC2)CC1,203 °C
5,CC(C)OCC(=O)N[C@H]1CC[C@H](CCN2CCN(c3cccc(F)c3F)CC2)CC1.Cl,215 °C
6,COc1ccc(Cl)cc1N1CCN(CCC2CCN(CC(C)=O)CC2)CC1.Cl.Cl,275 °C
7,Cl.N#CCCC(=O)N[C@H]1CC[C@H](CCN2CCN(c3cccc(C(F)(F)F)c3)CC2)CC1,230 °C
8,CCOCC(=O)N1CCC(CCN2CCN(c3cccc(C(F)(F)F)c3)CC2)CC1.Cl,145 °C
9,Cl.N#CCCCC(=O)N1CCC(CCN2CCN(c3cccc(C(F)(F)F)c3)CC2)CC1,95 °C
10,CC(=O)CN1CCC(CCN2CC=C(c3cccc(Cl)c3Cl)CC2)CC1.Cl.Cl,296 to 297 °C
11,CCc1cccc(N2CCN(CC[C@H]3CC[C@H](NC(=O)CCCC#N)CC3)CC2)c1.Cl,205 °C
12,Cl.Cl.NC(=O)CN1CCC(CCN2CCN(c3cccc(C(F)(F)F)c3)CC2)CC1,120 °C
13,CC(=O)CN1CCC(CCN2CCN(c3cc(F)cc(F)c3)CC2)CC1.Cl.Cl,260 °C
14,CC(=O)CN1CCC(CCN2CCN(c3cc(C)ccc3Cl)CC2)CC1.Cl.Cl,283 °C
15,CC(=O)CN1CCC(CCN2CCN(c3cccc(C(F)(F)F)c3C)CC2)CC1.Cl.Cl,300 °C
16,CC(=O)CN1CCC(CCN2CCN(c3cc(F)ccc3C)CC2)CC1.Cl.Cl,281 °C
17,CC(=O)CN1CCC(CCN2CC=C(c3cccc(C(F)(F)F)c3)CC2)CC1.Cl.Cl,268 °C
18,CCc1cccc(C2=CCN(CC[C@H]3CC[C@H](NC(=O)CCCC#N)CC3)CC2)c1,147 °C
19,Cl.Cl.O=C(CN1CCC(CCN2CCN(c3cccc(C(F)(F)F)c3)CC2)CC1)c1ccc(F)c(F)c1,220 °C
20,CC(=O)CCCN1CCC(CCN2CCN(c3cccc(C(F)(F)F)c3)CC2)CC1.Cl.Cl,315 °C
21,CC(=O)CN1CCC(CCN2CCN(c3cccc4cccnc34)CC2)CC1.Cl.Cl,270 °C
22,CCCc1cccc(N2CCN(CCC3CCN(CC(C)=O)CC3)CC2)c1.Cl.Cl,256 °C
23,CC(=O)CN1CCC(CCN2CCN(c3cccc(F)c3F)CC2)CC1.Cl.Cl,270 °C

row,Compound,melting point
1,N#CCC(=O)N[C@H]1CC[C@H](CCN2CC=C(c3ccc(F)cc3)CC2)CC1,202 °C
2,N#CCC(=O)N[C@H]1CC[C@H](CCN2CC=C(c3ccc(Cl)cc3)CC2)CC1,220 °C
3,CC(=O)CN1CCC(CCN2CCN(c3cc(C)c(F)cc3Cl)CC2)CC1.Cl.Cl,344 °C
4,CC(=O)CN1CCC(CCN2CCN(c3cc(C)cc(Cl)c3)CC2)CC1.Cl.Cl,300 °C
5,N#CCCCC(=O)N[C@H]1CC[C@H](CCN2CC=C(c3ccccc3)CC2)CC1,171 °C
6,CC(=O)CN1CCC(CCN2CCN(c3cccc(F)c3)CC2)CC1.Cl.Cl,268 °C
7,CCOc1cccc(N2CCN(CCC3CCN(CC(C)=O)CC3)CC2)c1.Cl.Cl,246 °C
8,COc1cc(N2CCN(CCC3CCN(CC(C)=O)CC3)CC2)cc(C(F)(F)F)c1.Cl.Cl,277 to 278 °C
9,CC(=O)CN1CCC(CCN2CCN(c3ccc(Cl)cc3F)CC2)CC1.Cl.Cl,206 °C
10,CC(=O)CN1CCC(CCN2CCN(c3ccc(C(F)(F)F)cc3F)CC2)CC1.Cl.Cl,278 to 279 °C
11,CCOCC(=O)N[C@H]1CC[C@H](CCN2CCN(c3ccc(C)c(Cl)c3)CC2)CC1.Cl,162 °C
12,CCOCC(=O)N[C@H]1CC[C@H](CCN2CC=C(c3ccc(F)cc3)CC2)CC1,122 °C
13,CC(=O)CN1CCC(CCN2CCN(c3ccc(Cl)c(Cl)c3F)CC2)CC1.Cl.Cl,230 °C
14,CC(=O)CN1CCC(CCN2CCN(c3cc(C(F)(F)F)ccc3F)CC2)CC1.Cl.Cl,230 °C
15,CC(=O)CN1CCC(CCN2CCN(c3ccc4c(c3)CCC4)CC2)CC1.Cl.Cl,291 °C
16,N#CCCCC(=O)N[C@H]1CC[C@H](CCN2CC=C(c3ccc(C(F)(F)F)cc3)CC2)CC1,185 °C
17,CC(=O)CN1CCC(CCN2CCN(c3cccc4c3OCCCO4)CC2)CC1.Cl.Cl,280 °C
18,CC(=O)CN1CCC(CCN2CCN(c3cccc(C(C)(F)F)c3)CC2)CC1.Cl.Cl,256 °C
19,CC(=O)CN1CCC(CCN2CC=C(c3ccc(Cl)cc3)CC2)CC1,101 °C
20,CC(=O)CN1CCC(CCN2CCN(c3ccc(C#N)cc3)CC2)CC1.Cl.Cl,295 °C
21,CC(=O)CN1CCC(CCN2CC=C(c3ccc(F)cc3)CC2)CC1,72 °C
22,CC(=O)CN1CCC(CCN2CCN(c3cc(Cl)ccc3Cl)CC2)CC1.Cl.Cl,172 °C
23,CC(=O)CN1CCC(CCN2CC=C(c3cccc4c3CCC4)CC2)CC1.Cl.Cl,291 °C

row,Compound,melting point
1,CC(=O)CN1CCC(CCN2CCN(c3cccc(S(C)(=O)=O)c3)CC2)CC1.Cl.Cl,260 °C
2,CC(=O)CN1CCC(CCN2CC=C(c3ccccc3)CC2)CC1,80 °C
3,CC(=O)CN1CCC(CCN2CCN(c3ccc(C)c(F)c3)CC2)CC1.Cl.Cl,276 °C
4,CC(=O)CN1CCC(CCN2CCc3cc(C#N)ccc3C2)CC1.Cl.Cl,249 °C
5,CC(=O)CN1CCC(CCN2CCN(c3ccc(Cl)c(C(F)(F)F)c3)CC2)CC1.Cl.Cl,263 °C
6,CC(=O)CN1CCC(CCN2CCN(c3cccc(-c4ccccc4)c3)CC2)CC1.Cl.Cl,235 °C
7,CC(=O)CN1CCC(CCN2CCN(c3ccc(F)cc3C)CC2)CC1.Cl.Cl,283 °C
8,CC(=O)CN1CCC(CCN2CCC(c3cccc4c3CCC4)CC2)CC1.Cl.Cl,339 °C
9,COc1ccc(C(F)(F)F)cc1N1CCN(CCC2CCN(CC(C)=O)CC2)CC1.Cl.Cl,260 °C
10,CCCC(=O)CN1CCC(CCN2CCN(c3cccc4c3CCC4)CC2)CC1.Cl.Cl,270 °C
11,CC(=O)CN1CCC(CCN2CCN(c3c(C)cccc3C)CC2)CC1.Cl.Cl,249 °C
12,COc1ccc(Cl)c(N2CCN(CCC3CCN(CC(C)=O)CC3)CC2)c1.Cl.Cl,263 °C
13,CC(=O)CN1CCC(CCN2CCN(c3cccc4c3CCCCC4)CC2)CC1.Cl.Cl,300 °C
14,CC(=O)CN1CCC(CCN2CCN(c3cc(F)cc(C(F)(F)F)c3)CC2)CC1.Cl.Cl,295 °C
15,CC(=O)CN1CCC(CCN2CCN(c3cccc(Oc4ccccc4)c3)CC2)CC1.Cl.Cl,241 °C
16,CC(=O)CN1CCC(CCN2CCN(c3ccccc3C(F)(F)F)CC2)CC1.Cl.Cl,290 °C
17,CC(=O)CN1CCC(CCN2CCN(c3cccc(Cc4ccccc4)c3)CC2)CC1.Cl.Cl,253 °C
18,CC(=O)CN1CCC(CCN2CCN(c3ccc(F)c(F)c3)CC2)CC1.Cl.Cl,249 °C
19,CC(=O)CN1CCC(CCN2CCN(c3ccc(Cl)cc3)CC2)CC1.Cl.Cl,277 °C
20,CC(=O)CN1CCC(CCN2CCN(c3cccc(C(C)C)c3)CC2)CC1.Cl.Cl,252 °C
21,Cl.N#CCCCC(=O)N1CCC(CCN2CCN(c3cccc4c3CCC4)CC2)CC1,210 °C
22,CCOCC(=O)N1CCC(CCN2CCN(c3cccc4c3CCC4)CC2)CC1.Cl,270 °C
23,CC(=O)CN1CCC(CCN2CCN(c3cc(Cl)ccc3F)CC2)CC1.Cl.Cl,270 °C

row,Compound,melting point
1,COCc1cccc(N2CCN(CCC3CCN(CC(C)=O)CC3)CC2)c1.Cl.Cl,255 °C
2,CC(=O)CN1CCC(CCN2CCN(c3cc(Cl)c(Cl)cc3Cl)CC2)CC1.Cl.Cl,261 °C
3,Cl.N#CCCC(=O)N1CCC(CCN2CCN(c3cc(Cl)cc(C(F)(F)F)c3)CC2)CC1,128 °C
4,CC(=O)CN1CCC(CCN2CCN(c3cc(Cl)ccc3C)CC2)CC1.Cl.Cl,259 °C
5,Cc1cccc(C2=CCN(CC[C@H]3CC[C@H](NC(=O)C4=CCCC4)CC3)CC2)c1C#N,183 °C
6,CC(=O)CN1CCC(CCN2CC=C(c3cc(F)cc(C(F)(F)F)c3)CC2)CC1.Cl.Cl,287 °C
7,N#CCC(=O)N[C@H]1CC[C@H](CCN2CC=C(c3cc(F)cc(C(F)(F)F)c3)CC2)CC1,163 °C
8,N#CCCCC(=O)N[C@H]1CC[C@H](CCN2CC=C(c3cc(F)cc(C(F)(F)F)c3)CC2)CC1,114 °C
9,CC(=O)CN1CCC(CCN2CCN(c3ccc(Cl)c(Cl)c3Cl)CC2)CC1.Cl.Cl,275 °C
10,Cl.O=C(CC(F)(F)F)N1CCC(CCN2CCN(c3cccc4c3CCC4)CC2)CC1,206 °C
11,CCc1ccccc1C1=CCN(CC[C@H]2CC[C@H](NC(=O)CC#N)CC2)CC1,158 °C
12,Cc1ccccc1C1=CCN(CC[C@H]2CC[C@H](NC(=O)CCCC#N)CC2)CC1,140 °C
13,CC(=O)CN1CCC(CCN2CCN(c3ccccc3CC(C)C)CC2)CC1.Cl.Cl,285 °C
14,CSc1ccccc1N1CCN(CCC2CCN(CC(C)=O)CC2)CC1.Cl.Cl,280 °C
15,COCC(=O)N[C@H]1CC[C@H](CCN2CC=C(c3cccc(C#N)c3)CC2)CC1,117 °C
16,N#Cc1cccc(C2=CCN(CC[C@H]3CC[C@H](NC(=O)CCC(F)(F)F)CC3)CC2)c1,177 °C
17,CC(=O)CN1CCC(CCN2CCN(c3cccc(Cl)c3C#N)CC2)CC1.Cl.Cl,284 °C
18,CC(=O)CN1CCC(CCN2CCN(c3cc(Cl)c(Cl)cc3F)CC2)CC1.Cl.Cl,309 °C (dec.)
19,CC(=O)CN1CCC(CCN2CCN(c3cccc(Cl)c3C)CC2)CC1.Cl.Cl,320 to 325 °C
20,CC(C)(C)OC(=O)N1CCC(CCN2CCN(c3cccc(C(F)(F)F)c3)CC2)CC1.Cl,188 °C
21,COCCCC(=O)N[C@H]1CC[C@H](CCN2CC=C(c3cccc(C(F)(F)F)c3)CC2)CC1,145 °C
22,CCOCC(=O)N[C@H]1CC[C@H](CCN2CC=C(c3cccc(C(F)(F)F)c3)CC2)CC1,75 °C
23,CC(=O)CN1CCC(CCN2CCN(c3ccccc3F)CC2)CC1.Cl.Cl,250 °C
